According to publication doi:10.1101/2025.06.02.657523v1 (biorxiv, 2025):

Target: RSK4 (Homo sapiens, UniProt Q9UK32)
Experiment: Kinase-Glo Plus luminescence kinase assay
Assay type: biochemical
Settings: […] ATP, […] MgCl2, pH […] °C, […] min, […] DMSO

Sequence of RSK4 (Q9UK32 whole entry): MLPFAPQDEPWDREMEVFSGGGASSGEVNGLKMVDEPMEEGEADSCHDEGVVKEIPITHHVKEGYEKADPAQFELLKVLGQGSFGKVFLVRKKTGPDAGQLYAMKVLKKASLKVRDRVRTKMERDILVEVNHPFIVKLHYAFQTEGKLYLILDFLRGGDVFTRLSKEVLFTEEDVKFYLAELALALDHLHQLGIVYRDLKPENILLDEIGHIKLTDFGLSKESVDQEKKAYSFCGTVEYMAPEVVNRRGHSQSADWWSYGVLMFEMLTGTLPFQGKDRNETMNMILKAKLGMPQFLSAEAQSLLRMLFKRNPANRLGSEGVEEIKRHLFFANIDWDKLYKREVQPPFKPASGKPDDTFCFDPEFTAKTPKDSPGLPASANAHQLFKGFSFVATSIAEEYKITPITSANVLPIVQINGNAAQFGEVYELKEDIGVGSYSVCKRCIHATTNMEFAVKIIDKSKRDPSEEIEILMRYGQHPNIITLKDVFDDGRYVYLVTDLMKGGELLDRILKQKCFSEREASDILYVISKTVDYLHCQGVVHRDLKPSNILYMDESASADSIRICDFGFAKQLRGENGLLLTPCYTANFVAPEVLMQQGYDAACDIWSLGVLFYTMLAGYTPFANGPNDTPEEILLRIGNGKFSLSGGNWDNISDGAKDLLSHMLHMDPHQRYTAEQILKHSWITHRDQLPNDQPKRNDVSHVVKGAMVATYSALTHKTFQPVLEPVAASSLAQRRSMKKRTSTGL

Row | IC50 [nM] | SMILES
1 | 86.3 ± 40.7 | Cc1cc(=O)n(C2CCC(F)(F)C2)c2nc(Nc3ccc4c(c3)CC(=O)N4)ncc12 (centres unmarked) [R634]
2 | 45.9 ± 3.11 | Cc1cc(=O)n(C2CCCCC2)c2nc(Nc3ccc4[nH]ccc4c3)ncc12 [R635, 2-((1H-indol-5-yl)amino)-8-cyclohexyl-5-methylpyrido[2,3-d]pyrimidin-7(8H)-one]
